Data from ChEMBL document CHEMBL3885881, “DrugMatrix”.

Species on record: Rattus norvegicus
Test: DrugMatrix - Regimen: Daily Repeat
Assay type: toxicity, organism-based, Sprague-Dawley
Parameters: regimen Daily Repeat, gender Male, age 6-8 weeks
Conditions: in vivo, po, 2000 mg/kg, route oral GAVAGE, dose level High, vehicle .5 % CMC; for ABSOLUTE BASOPHIL / ABSOLUTE EOSINOPHIL / ABSOLUTE LYMPHOCYTE / ABSOLUTE MONOCYTE / ABSOLUTE SEGMENTED NEUTROPHIL / BASOPHIL / EOSINOPHIL / ERYTHROCYTE COUNT / HEMATOCRIT / HEMOGLOBIN / LEUKOCYTE COUNT / LYMPHOCYTE / MEAN CORPUSCULAR HEMOGLOBIN / MEAN CORPUSCULAR HEMOGLOBIN CONCENTRATION / MEAN CORPUSCULAR VOLUME / MONOCYTE / NEUTROPHIL / NUCLEATED RED BLOOD CELLS / PLATELET COUNT: tissue Blood; for ALANINE AMINOTRANSFERASE / ALBUMIN / ALKALINE PHOSPHATASE / ASPARTATE AMINOTRANSFERASE / BLOOD UREA NITROGEN / CARBON DIOXIDE / CHLORIDE / CHOLESTEROL / CREATINE PHOSPHOKINASE / CREATININE / GLUCOSE / LACTATE DEHYDROGENASE / LIPASE / PHOSPHORUS / POTASSIUM / SODIUM / TOTAL BILIRUBIN / TOTAL PROTEIN / URIC ACID: tissue Plasma

## C[C@]12CCC(=O)C=C1CC[C@@H]1[C@@H]2CC[C@@]2(C)[C@H]1CC[C@]2(C)O [METHYLTESTOSTERONE]
72 h, time 3 day
  ABSOLUTE BASOPHIL: 0 CELLS/uL
  ABSOLUTE EOSINOPHIL: 184 CELLS/uL
  ABSOLUTE LYMPHOCYTE: 15708.67 CELLS/uL
  ABSOLUTE MONOCYTE: 378.67 CELLS/uL
  ABSOLUTE SEGMENTED NEUTROPHIL: 2662 CELLS/uL
  BASOPHIL: 0%
  EOSINOPHIL: 1%
  ERYTHROCYTE COUNT: 6.47 x10E6/uL
  HEMATOCRIT: 38.33%
  HEMOGLOBIN: 14.53 G/DL
  LEUKOCYTE COUNT: 18.93 x10E3/uL
  LYMPHOCYTE: 83%
  MEAN CORPUSCULAR HEMOGLOBIN: 22.53 pg
  MEAN CORPUSCULAR HEMOGLOBIN CONCENTRATION: 37.97 G/DL
  MEAN CORPUSCULAR VOLUME: 59.27 fL
  MONOCYTE: 2%
  NEUTROPHIL: 14%
  NUCLEATED RED BLOOD CELLS: 0 /100WBC
  PLATELET COUNT: 1292 x10E3/uL
  ALANINE AMINOTRANSFERASE: 50.33 u/L
  ALBUMIN: 3.93 G/DL
  ALKALINE PHOSPHATASE: 352.33 u/L
  ASPARTATE AMINOTRANSFERASE: 71.67 u/L
  BLOOD UREA NITROGEN: 13 mg/dL
  CARBON DIOXIDE: 27.67 mmol/L
  CHLORIDE: 101.33 MEQ/L
  CHOLESTEROL: 14.67 mg/dL
  CREATINE PHOSPHOKINASE: 215 u/L
  CREATININE: 0.25 mg/dL
  GLUCOSE: 123.33 mg/dL
  LACTATE DEHYDROGENASE: 352 u/L
  LIPASE: 7.33 u/L
  PHOSPHORUS: 10.83 mg/dL
  POTASSIUM: 6.24 MEQ/L
  SODIUM: 142.83 MEQ/L
  TOTAL BILIRUBIN: 0.5 mg/dL
  TOTAL PROTEIN: 5.53 G/DL
  URIC ACID: 1.17 mg/dL
120 h, time 5 day
  ABSOLUTE BASOPHIL: 0 CELLS/uL
  ABSOLUTE EOSINOPHIL: 0 CELLS/uL
  ABSOLUTE LYMPHOCYTE: 14176.33 CELLS/uL
  ABSOLUTE MONOCYTE: 40.33 CELLS/uL
  ABSOLUTE SEGMENTED NEUTROPHIL: 2783.33 CELLS/uL
  BASOPHIL: 0%
  EOSINOPHIL: 0%
  ERYTHROCYTE COUNT: 6.11 x10E6/uL
  HEMATOCRIT: 36.23%
  HEMOGLOBIN: 13.97 G/DL
  LEUKOCYTE COUNT: 17 x10E3/uL
  LYMPHOCYTE: 83%
  MEAN CORPUSCULAR HEMOGLOBIN: 22.9 pg
  MEAN CORPUSCULAR HEMOGLOBIN CONCENTRATION: 38.53 G/DL
  MEAN CORPUSCULAR VOLUME: 59.37 fL
  MONOCYTE: 0.33%
  NEUTROPHIL: 16.67%
  NUCLEATED RED BLOOD CELLS: 0.33 /100WBC
  PLATELET COUNT: 1295.33 x10E3/uL
  ALANINE AMINOTRANSFERASE: 46 u/L
  ALBUMIN: 3.83 G/DL
  ALKALINE PHOSPHATASE: 370 u/L
  ASPARTATE AMINOTRANSFERASE: 60 u/L
  BLOOD UREA NITROGEN: 16.33 mg/dL
  CARBON DIOXIDE: 26 mmol/L
  CHLORIDE: 105 MEQ/L
  CHOLESTEROL: 28.33 mg/dL
  CREATINE PHOSPHOKINASE: 184.33 u/L
  CREATININE: 0.2 mg/dL
  GLUCOSE: 158.33 mg/dL
  LACTATE DEHYDROGENASE: 186.67 u/L
  LIPASE: 7.67 u/L
  PHOSPHORUS: 12.33 mg/dL
  POTASSIUM: 6.29 MEQ/L
  SODIUM: 149.6 MEQ/L
  TOTAL BILIRUBIN: 0.3 mg/dL
  TOTAL PROTEIN: 6.03 G/DL
  URIC ACID: 1.5 mg/dL
